Source: patent publication US8580788B2, “Opioid antagonists” (Adolor Corporation, priority 2005, dated 2013)

What was measured:
[1] = biological target: T1, cloned human μ opioid receptor (Homo sapiens (Human), UniProt P35372); assay: [3H]diprenorphine receptor binding, μ opioid receptor; details: inhibition of [3H]diprenorphine binding; Cheng-Prusoff correction of IC50
Procedure: (§1) IC50 values were obtained by nonlinear analysis of the data using GraphPad Prism version 3.00 for Windows (GraphPad Software, San Diego). Ki values were obtained by Cheng-Prusoff corrections of IC50 values.
(§2) The receptor binding method (DeHaven and DeHaven-Hudkins, 1998) was a modification of the method of Raynor et al. (1994). After dilution in buffer A and homogenization as before, membrane proteins (10-80 μg) in 250 μL were added to mixtures containing test compound and [^3H]diprenorphine (0.5 to 1.0 nM, 40,000 to 50,000 dpm) in 250 μL of buffer A in 96-well deep-well polystyrene titer plates (Beckman). After incubation at room temperature for one hour, the samples were filtered through GF/B filters that had been presoaked in a solution of 0.5% (w/v) polyethylenimine and 0.1% (w/v) bovine serum albumin in water. The filters were rinsed 4 times with 1 mL of cold 50 mM Tris HCl, pH 7.8 and radioactivity remaining on the filters determined by scintillation spectroscopy. Nonspecific binding was determined by the minimum values of the titration curves and was confirmed by separate assay wells containing 10 μM naloxone.
(§3) To determine the equilibrium dissociation constant for the inhibitors (Ki), radioligand bound (cpm) in the presence of various concentrations of test compounds was measured. The concentration to give half-maximal inhibition (EC50) of radioligand binding was determined from a best nonlinear regression fit to the following equation,
(§4) [formula] where Y is the amount of radioligand bound at each concentration of test compound, Bottom is the calculated amount of radioligand bound in the presence of an infinite concentration of test compound, Top is the calculated amount of radioligand bound in the absence of test compound, X is the logarithm of the concentration of test compound, and LogEC50 is the log of the concentration of test compound where the amount of radioligand bound is half-way between Top and Bottom. The nonlinear regression fit was performed using the program Prism® (GraphPad Software, San Diego, Calif.). The Ki values were then determined from the EC50 values by the following equation,
(§5) [formula] where [ligand] is the concentration of radioligand and Kd is the equilibrium dissociation constant for the radioligand.

[2] = biological target: cloned human δ opioid receptor (Homo sapiens (Human), UniProt P41143); assay: [3H]diprenorphine receptor binding, δ opioid receptor; details: inhibition of [3H]diprenorphine binding; Cheng-Prusoff correction of IC50
cloned human δ opioid receptor, sequence (P41143 whole entry): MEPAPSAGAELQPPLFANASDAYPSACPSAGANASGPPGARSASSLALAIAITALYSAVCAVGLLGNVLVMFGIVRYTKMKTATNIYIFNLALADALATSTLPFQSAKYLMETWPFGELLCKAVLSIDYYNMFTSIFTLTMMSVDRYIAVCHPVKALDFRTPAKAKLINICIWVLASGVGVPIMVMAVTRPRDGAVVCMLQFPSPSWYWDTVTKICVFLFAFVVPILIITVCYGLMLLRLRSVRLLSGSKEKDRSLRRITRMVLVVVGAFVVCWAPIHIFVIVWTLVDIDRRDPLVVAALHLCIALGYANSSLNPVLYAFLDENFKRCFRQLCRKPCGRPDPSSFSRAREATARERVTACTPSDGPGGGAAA
Procedure: as §1, §2, §3, §4, §5

[3] = biological target: cloned human κ opioid receptor (Homo sapiens (Human), UniProt P41145); assay: [3H]diprenorphine receptor binding, κ opioid receptor; details: inhibition of [3H]diprenorphine binding; Cheng-Prusoff correction of IC50
cloned human κ opioid receptor, sequence (P41145 whole entry): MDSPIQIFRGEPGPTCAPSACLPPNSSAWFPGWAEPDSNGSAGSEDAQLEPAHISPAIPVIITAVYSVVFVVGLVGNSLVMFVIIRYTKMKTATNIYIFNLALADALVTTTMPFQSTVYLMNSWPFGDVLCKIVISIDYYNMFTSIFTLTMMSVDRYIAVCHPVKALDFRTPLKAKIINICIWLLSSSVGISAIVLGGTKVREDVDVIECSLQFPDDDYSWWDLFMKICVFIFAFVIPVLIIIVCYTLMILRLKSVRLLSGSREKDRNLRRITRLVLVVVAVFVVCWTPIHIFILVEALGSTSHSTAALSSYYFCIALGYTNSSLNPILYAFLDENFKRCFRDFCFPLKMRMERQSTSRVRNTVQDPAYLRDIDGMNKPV
Procedure: as §1, §2, §3, §4, §5

[4] = biological target: T1, cloned human μ opioid receptor; assay: inhibition of agonist-stimulated [35S]GTPγS binding (in vitro antagonist activity), μ opioid receptor; format: biochemical; details: inhibition of loperamide (EC80)-stimulated [35S]GTPγS binding to membranes
Procedure: The potencies of the antagonists were assessed by their abilities to inhibit agonist-stimulated [^35S]GTPγS binding to membranes containing the cloned human μ, κ, or δ opioid receptors. The agonists used were loperamide for the μ opioid receptor.
To determine the IC50 value, which was the concentration to give half-maximal inhibition of agonist-stimulated [^35S]GTPγS binding, the amount of [^35S]GTPγS bound in the presence of a fixed concentration of agonist and various concentrations of antagonist was measured. The fixed concentration of agonist was the EC80 for the agonist, which was the concentration to give 80% of the relative maximum stimulation of [^35S]GTPγS binding. The IC50 value was determined from a best nonlinear regression fit of the data to the following equation,
[formula] where Y is the amount of [^35S]GTPγS bound at each concentration of antagonist, Bottom is the calculated amount of [^35S]GTPγS bound in the presence of an infinite concentration of antagonist, Top is the calculated amount of [^35S]GTPγS bound in the absence of added antagonist, X is the logarithm of the concentration of antagonist, and LogIC50 is the logarithm of the concentration of antagonist where the amount of [^35S]GTPγS bound is halfway between Bottom and Top. The nonlinear regression fit was performed using GraphPad Prism® version 3.00 for Windows (GraphPad Software, San Diego, Calif.).

T1 sequence (P35372 whole entry): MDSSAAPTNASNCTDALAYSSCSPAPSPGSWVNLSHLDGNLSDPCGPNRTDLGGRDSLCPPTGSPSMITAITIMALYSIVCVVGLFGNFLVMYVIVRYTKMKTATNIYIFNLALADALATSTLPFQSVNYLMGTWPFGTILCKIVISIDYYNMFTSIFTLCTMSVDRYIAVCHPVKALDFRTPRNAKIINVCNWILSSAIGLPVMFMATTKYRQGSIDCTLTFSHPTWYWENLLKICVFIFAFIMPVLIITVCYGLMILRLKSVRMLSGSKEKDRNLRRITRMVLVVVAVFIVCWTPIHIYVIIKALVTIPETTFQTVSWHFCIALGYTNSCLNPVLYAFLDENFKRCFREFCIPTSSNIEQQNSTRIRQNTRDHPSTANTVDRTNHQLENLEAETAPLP

Structure (SMILES)	Ki [1]	Ki [2]	Ki [3]	IC50 [4]
C[C@H]1CN2C[C@H](c3ccccc3)CC[C@H]2C[C@@]1(C)c1cccc(O)c1 [Example 1, 3-((2R,3R,7S,9αS)-2,3-dimethyl-7-phenyl-octahydro-1H-quinolizin-2-yl)phenol]	0.00057 µM	0.03 µM	0.0089 µM	0.00053 µM
C[C@H]1CN2C[C@H](c3ccccc3)N(C)C[C@H]2C[C@@]1(C)c1cccc(O)c1 [Example 3B, 3-((3S,7R,8R,9αR)-2,7,8-trimethyl-3-phenyl-octahydro-1H-pyrido[1,2-α]pyrazin-8-yl)phenol]	0.0033 µM	0.716 µM	0.012 µM	0.026 µM
C[C@H]1CN2CCN(CCc3ccccc3)C[C@H]2C[C@@]1(C)c1cccc(O)c1 [Example 2B, 3-((7R,8R,9αR)-7,8-dimethyl-2-phenethyl-octahydro-1H-pyrido[1,2-α]pyrazin-8-yl)phenol]		0.242 µM	0.112 µM	0.021 µM
C[C@H]1CN2CCN(Cc3ccccc3)C[C@H]2C[C@@]1(C)c1cccc(O)c1 [Example 2D, 3-((7R,8R,9αR)-2-benzyl-7,8-dimethyl-octahydro-1H-pyrido[1,2-α]pyrazin-8-yl)phenol]	0.0011 µM	0.139 µM	0.044 µM	0.011 µM
C[C@H]1CN2CCN(C(=O)c3ccccc3)C[C@H]2C[C@@]1(C)c1cccc(O)c1 [Example 2C, ((7R,8R,9αR)-8-(3-hydroxyphenyl)-7,8-dimethyl-hexahydro-1H-pyrido[1,2-α]pyrazin-2(6H)-yl)(phenyl)methanone]	0.002 µM	0.025 µM	0.19 µM	0.021 µM
C[C@H]1CN2C[C@H](Cc3ccccc3)NC[C@H]2C[C@@]1(C)c1cccc(O)c1 [Example 4, 3-((3S,7R,8R,9αR)-3-benzyl-7,8-dimethyl-octahydro-1H-pyrido[1,2-α]pyrazin-8-yl)phenol]	0.0089 µM	0.036 µM	0.085 µM	0.029 µM
C[C@H]1CN2C[C@H](c3ccccc3)NC[C@H]2C[C@@]1(C)c1cccc(O)c1 [Example 3A, 3-((3S,7R,8R,9αR)-7,8-dimethyl-3-phenyl-octahydro-1H-pyrido[1,2-α]pyrazin-8-yl)phenol]	0.0036 µM	0.088 µM	0.018 µM	0.012 µM
